Experimental data: patent publication US20250346584A1, “NOVEL KAPPA OPIOID LIGANDS” (The Scripps Research Institute, priority 2012, published 2025)

Target: kappa opioid receptor (OPRK1) (Homo sapiens (Human), UniProt P41145)
Assay: OPRK1 antagonist assay (b-arrestin-2-TEV / b-lactamase reporter cell line, EC80 U-50488 challenge)
Assay type: cell-based
Details: for IC50: read-out: IC50 nM (% inhib if other than 50%), antagonist mode vs EC80 U-50488, NA = not active at concentrations up to 10 μM

Chain of kappa opioid receptor (OPRK1) (P41145 whole entry): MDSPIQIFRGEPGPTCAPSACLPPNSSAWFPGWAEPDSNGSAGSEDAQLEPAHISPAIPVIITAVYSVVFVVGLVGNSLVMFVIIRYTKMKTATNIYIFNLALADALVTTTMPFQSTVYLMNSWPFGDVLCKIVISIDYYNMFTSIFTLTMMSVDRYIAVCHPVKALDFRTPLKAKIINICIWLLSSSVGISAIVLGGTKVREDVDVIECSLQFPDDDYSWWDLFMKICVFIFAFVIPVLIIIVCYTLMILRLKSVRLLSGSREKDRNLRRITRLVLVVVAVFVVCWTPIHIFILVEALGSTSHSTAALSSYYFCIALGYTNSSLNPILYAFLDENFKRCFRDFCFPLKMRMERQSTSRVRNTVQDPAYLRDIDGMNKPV

Row | IC50 [nM] | % inhib if other than 50% (% inhibition at the concentration given) [%] | SMILES
1 | 70 |  | Cc1ccc2nc(N3CCC(NC4CCC[C@@H]4O)CC3)c(-c3noc(C)n3)cc2c1 (stereo partly drawn) [compound 440]
2 | 12.5 |  | CO[C@H]1CN(c2ncc(C)cc2C(=O)OC(C)C)CC[C@H]1NC1CCCCC1 [compound 356]
3 | 37 |  | CCc1ccc2nc(N3CCC(NC4CCCCC4)C(OC)C3)c(-c3nc(C)no3)cc2c1 (stereo not drawn) [compound 268]
4 | 40 |  | CO[C@H]1CN(c2nc3ccccc3cc2-c2cnc(C)cn2)CC[C@H]1NC1CCCCC1 [compound 470]
5 | 7680 |  | Cc1cnc(-c2cc(C)cnc2N2CCC(NC3CCCCC3)CC2)nc1 [compound 406]
6 | 315 |  | CO[C@H]1CN(c2nc3ccc(C)cc3cc2C(C)=O)CC[C@H]1NC1CCCCC1 [compound 483]
7 | 2 |  | CO[C@H]1CN(c2nc3ccccc3cc2-c2nc(C)no2)CC[C@H]1NC1CCCCC1 [compound 295]
8 | 20 |  | Cc1noc(-c2cc3ccc(F)cc3nc2N2CCC(NCC(C)C)CC2)n1 [compound 527]
9 | 184 |  | CCOC(=O)c1cc2cc(C)ccc2nc1N1CCC(NC2CCOCC2)CC1 [compound 289]
10 | 347 |  | CO[C@@H]1CN(c2nc3ccc(C)cc3cc2C(C)=O)CC[C@@H]1NC1CCCCC1 [compound 484]
11 | 22.3 |  | Cc1cnc(N2CCC(C)(NC3CCCCC3)CC2)c(-c2nc(C)no2)c1 [compound 357]
12 | 3 |  | CCCC(C)NC1CCN(c2nc3ccc(C)cc3cc2-c2nc(C)no2)CC1 (stereo not drawn) [compound 351]
13 | 85 |  | CCCC(C)NC1CCN(c2nc3ccc(C)cc3cc2-c2noc(C)n2)CC1 (stereo not drawn) [compound 453]
14 | 372 |  | COC1CN(c2nc3ccccc3cc2C2=NC(C)CO2)CCC1NC1CCCCC1 (stereo not drawn) [compound 259]
15 | 25 |  | CO[C@H]1CN(c2ncc(C)cc2-c2nc(C)no2)CC[C@H]1NC1CCCCC1 [compound 299]
16 | 4470 |  | Cc1ccc2nc(N3CCC(NC4COC4)CC3)c(-c3nc(C)no3)cc2c1 [compound 270]

Row | IC50 [nM] | % inhib if other than 50% (% inhibition at the concentration given) [%] | SMILES
17 | 63 |  | CCOC(=O)c1nc2cc(C)ccc2nc1N1CCC(NC2CCCCC2)C(CO)C1 (stereo not drawn) [compound 373]
18 | 5100 |  | CO[C@H]1CN(c2nc3ccc(F)cc3cc2-c2nc(C)no2)CC[C@H]1NCC(C)C [compound 530]
19 | 930 |  | Cc1ccc2cc(-c3nc(C)no3)c(N3CCC(NC4CCOCC4)CC3)nc2c1 [compound 257]
20 | 256 |  | COC1CN(c2nc(C)c(C)cc2-c2nc(C)no2)CCC1NCC(C)C (stereo not drawn) [compound 378]
21 | 170 |  | COC1CN(c2ncc(C)cc2-c2nc(C)no2)CCC1NC1CCOCC1 (stereo not drawn) [compound 320]
22 | 19 |  | CO[C@H]1CN(c2nc3cccc(F)c3cc2-c2nc(C)no2)CC[C@H]1NC1CCCCC1 [compound 520]
23 | 10 |  | CO[C@H]1CN(c2nc3ccc(F)cc3cc2-c2nc(C)no2)CC[C@H]1NC1CCCCC1 [compound 296]
24 | 10.6 |  | CO[C@H]1CN(c2nc3ccc(C)cc3cc2C(=O)OC(C)C)CC[C@H]1NC1CCCCC1 [compound 343]
25 | 21 |  | Cc1ccc2nc(N3CCC(NC(C)C4CCCCC4)CC3)c(-c3nc(C)no3)cc2c1 (stereo not drawn) [compound 349]
26 | 1470 |  | Cc1ccc2nc(N3CCC(NCC4CCCCC4)CC3)c(-c3nc(C)no3)cc2c1 [compound 261]
27 | 17 |  | Cc1ccc2nc(N3CCC(NC4CCCC[C@@H]4O)CC3)c(-c3noc(C)n3)cc2c1 (stereo partly drawn) [compound 437]
28 | 263 |  | Cc1ccc2nc(N3CCC(NC4CCCC4)CC3)c(-c3ccncn3)cc2c1 [compound 533]
29 | 16 |  | CCOC(=O)c1cc(Br)cnc1N1CC[C@H](NC2CCCCC2)[C@@H](O)C1 [compound 540]
30 | 30 |  | CCOC(=O)c1cc2cc(C)ccc2nc1N1CCC(NC2CCCCC2)C(OC)C1 (stereo not drawn) [compound 281]
31 | 9 |  | Cc1noc(-c2cc3cccc(C)c3nc2N2CCC(NC3CCCCC3)C(CO)C2)n1 (stereo not drawn) [compound 277]

The remaining lines, values behind:

Row | SMILES | IC50 [nM] | % inhib if other than 50% (% inhibition at the concentration given) [%]
32 | COC(=O)c1cc([N+](=O)[O-])cnc1N1CCC(NC2CCCCC2)CC1 [compound 84] | 6200 | 
33 | Cc1cnc(N2CCC(NC3CCCC3)C(CO)C2)c(-c2nc(C)no2)c1 (stereo not drawn) [compound 201] | 116 | 
34 | CO[C@@H]1CN(c2nc3ccc(F)cc3cc2-c2nc(C)no2)CC[C@@H]1NC1CCCCC1 [compound 331] | 27 | 
35 | COC(=O)c1cc(Br)cnc1N1CC2CN(C3CCCCC3)CC2C1 (stereo not drawn) [compound 49] | 1300 | 
36 | Cc1ccc2nc(N3CCC(NC4CCOC4)CC3)c(-c3nc(C)no3)cc2c1 (stereo not drawn) [compound 254] | 8 | 
37 | CCc1cnc(N2CC[C@@H](NC3CCCCC3)[C@H](O)C2)c(-c2nc(C)no2)c1 [compound 156] | 1000 | 
38 | COC(=O)c1cc(C)cnc1N1CC[C@@H](NC2CCCCC2)[C@H](O)C1 [compound 128] | 35 | 
39 | COC(=O)c1cccnc1N1CCC(NC2CCOCC2)C(O)C1 (stereo not drawn) [compound 56] | 7000 | 
40 | COC(=O)c1cc(Br)cnc1N1CCC(NC2CCCC2)C(O)C1 (stereo not drawn) [compound 44] | 79 | 
41 | COC(=O)c1cc(Br)cnc1N1CCC(NC2CCCCC2OC)C(O)C1 (stereo not drawn) [compound 59] | 36 | 
42 | COC(=O)c1cc(Br)cnc1N1CCC(N2CCCCC2)CC1 [compound 18] | 2100 | 
43 | CCOC(=O)c1cc(Br)cnc1N1CCC(NC2CCCC[C@@H]2O)CC1 (stereo partly drawn) [compound 8] | 579 | 
44 | Cc1noc(-c2cc(C3CC3)cnc2N2CC[C@@H](NC3CCCCC3)[C@H](O)C2)n1 [compound 155] | 1300 | 
45 | Cc1noc(-c2cc(C)c(C)nc2N2CCC(NC3CCCCC3)C(CO)C2)n1 (stereo not drawn) [compound 164] | 62 | 
46 | COC(=O)c1cc(Br)cnc1N1CCC(NC2CCCC2)C(C(=O)OC)C1 (stereo not drawn) [compound 114] | 1200 | 
47 | COC(=O)c1cc(Br)cnc1N1CCC(NC2CCCCC2)C(C)(C)C1 (stereo not drawn) [compound 63] | 234 | 

Row | SMILES | IC50 [nM] | % inhib if other than 50% (% inhibition at the concentration given) [%]
48 | Cc1noc(-c2cc3c(nc2N2CCC(NC4CCCCC4)C(CO)C2)CCCC3)n1 (stereo not drawn) [compound 191] | 420 | 
49 | Cc1cnc(N2CCC(NC3CCCCC3)C(CO)C2)c(-c2nc(C)no2)c1 (stereo not drawn) [compound 152] | 30 | 
50 | CC(C)OC(=O)c1cc(Br)cnc1N1CC[C@@H](NC2CCCCC2)[C@H](O)C1 [compound 135] | 1630 | 
51 | Cc1cnc(N2CC[C@@H](NC3CCCCC3)[C@H](O)C2)c(C#N)c1 [C67] | 37000 | 
52 | Cc1cnc(N2CCC(NC3CCCCCC3)C(CO)C2)c(-c2nc(C)no2)c1 (stereo not drawn) [compound 197] | 85 | 
53 | COC(=O)c1cc(Br)cnc1N1CCC(NC2CCCCCCC2)CC1 [compound 21] | 317 | 
54 | COC(=O)c1cc(Cl)cnc1N1CCC(NC2CCCCC2)C(CO)C1 (stereo not drawn) [compound 70] | 110 | 
55 | CCOC(=O)c1cc(Cl)cnc1N1CCC(NC2CCCCC2)C(CO)C1 (stereo not drawn) [compound 71] | 93 | 
56 | CCOC(=O)c1cc(C(=O)OC)c(C)nc1N1CCC(NC2CCCCC2)CC1 [compound 92] | 2600 | 
57 | COC(=O)c1cc(C)cnc1N1CCC(NC2CCCCC2)CC1 [compound 108] | 404 | 
58 | COC(=O)c1cc(I)cnc1N1CC[C@@H](NC2CCCCC2)[C@H](O)C1 [compound 106] | 24 | 
59 | COC(=O)c1cc(Br)cnc1N1CCC(NCCO)CC1 [compound 6] | 9200 | 80
60 | COC(=O)c1cc(Br)cnc1N1CCC(NC2CCCCC2)C(OC)C1 (stereo not drawn) [compound 122] | 125 | 
61 | COC(=O)c1cc(Br)cnc1N1CCC(O)C(NC2CCCCC2)C1 (stereo not drawn) [compound 47] | 2800 | 
62 | COC(=O)c1cc(C)c(C)nc1N1CCC(NC2CCCCC2)C(CO)C1 (stereo not drawn) [compound 162] | 1400 | 
